The values below come from article PMC12015242, “A universal cannabinoid CB1 and CB2 receptor TR-FRET kinetic ligand-binding assay” (Frontiers in Pharmacology, 2025).

Read-outs that look alike come from different tables or passages of the source.

Assay [1] has as its target T1, human CB2R (SNAP-CB2) (Homo sapiens, UniProt P34972).
T1 construct: truncated CB1R (CB1R91-472) and full-length CB2R (CB2R1–360); 5HT3A signal peptide (N, cleaved yes); expressed in transfected cells; membranes
The class given is binding. The settings on record: 37°C, D77 900 nM, 15-min incubation.

For assay [2], the target named is T1, human CB2R (SNAP-CB2). The class given is binding.
In assay [3] the target is T2, human CB1R (SNAP-CB1R91–472) (Homo sapiens, UniProt P21554).
T2 construct: SNAP-tagged human CB1R or CB2R (SNAP-CB1R91–472 and SNAP-CB2); 5HT3A signal peptide (N, cleaved yes); expressed in transfected cells; membranes
Description: biochemical. The class given is binding.

Assay [4] deals with T2, human CB1R (SNAP-CB1R91–472). Description: biochemical. Type of assay: binding. This is another data set of the same source.
The target of a further assay is T3, full length CB1R WT (Homo sapiens, UniProt P21554).
T3 construct: 5HT3A signal peptide (N, cleaved yes); expressed in transfected cells; host or cells: T-REx-293 cells, tetracycline-induced, co-expressing the Gi-CASE biosensor
The class given is cell-based.

The next assay addresses T4, truncated CB1R91-472 (Homo sapiens, UniProt P21554).
T4 construct: 5HT3A signal peptide (N, cleaved yes); expressed in transfected cells; host or cells: T-REx-293 cells, tetracycline-induced, co-expressing the Gi-CASE biosensor
Type of assay: cell-based.

Assay [5] deals with T2, human CB1R (SNAP-CB1R91–472). Nature of the assay: Fluorescent ligand kinetic association binding, TR-FRET. The settings on record: 25°C; for time required for equilibrium: 15 min data collection period. As to the method:
(§1) Experiments were performed using T-REx™-293 cell membranes expressing SNAP-tagged human CB1R or CB2R (SNAP-CB1R91–472 and SNAP-CB2). All the assays were conducted at either 25°C or 37°C in white 384-well OptiPlate plates (PerkinElmer) using the PHERAstar FSX microplate reader (BMG Labtech). The TRF 337/620/520 optic module was used for all assays, except for tracer MKA-136, where the TRF 337/570/490 module was utilized. Each well was excited with four laser flashes, and signal detection was performed with a 100-μs delay, integrating the signal over 700 μs.
(§2) Assay buffer comprised HBSS (Hanks’ Balanced Salt Solution) containing 5 mM HEPES, 0.5% BSA, and 0.02% Pluronic F-127 at pH 7.4. BSA (0.5%) and 0.02% Pluronic F-127 were used to minimize the non-specific binding of hydrophobic compounds to plasticware. Membranes were preincubated with 100 μM of GppNHp at 25 or 37°C for 15 min prior to addition to the plate using automatic injectors to ensure early time points could be measured with accuracy. GppNHp is a non-hydrolyzable GTP analog that will bind to G proteins and promote the dissociation of G proteins from the receptor. This way, we promote a single population of receptors (uncoupled from G proteins) avoiding a mixed population (i.e., uncoupled receptors (R) and receptors coupled to GDP bound G proteins, or G proteins alone (RG)). Adding GTP analogs is a common strategy used in GPCR binding studies to ensure a homogeneous single-state receptor population and simplify the analysis.
(§3) To control for potential plate position effects, plate layouts were varied between independent experiments. […] D77 stock was prepared at 100x the final concentration, and 0.4 μL was added to the wells. DMSO was held constant at 2% for all assay points, including the saturation and competition binding experiments, as reflected in the text.
(§4) Fluorescent ligand binding to CB1R and CB2R was assessed via HTRF detection, allowing the construction of association binding curves. For fluorescent ligand characterization, six increasing concentrations of fluorescent ligands were prepared, and cell membranes containing human CB1R or CB2R (1 μg/well) were added (at t = 0) in a total volume of 40 μL containing 2% DMSO at 25 or 37°C, with gentle agitation. […] As the wells are read sequentially, we restricted the readout of kinetic data of two ligands per experimental run to reduce the minimum reading cycle time.
(§5) D77 association data were fitted to a global fitting model using GraphPad Prism 9.2 to simultaneously calculate k on and k off using the following equation, where k obs equals the observed rate of association and L is the concentration of D77: kobs=L⋅kon+koff (3)

In assay [6] the target is T1, human CB2R (SNAP-CB2). The description is as above. The settings on record: 25°C; for time required for equilibrium: 15 min data collection period. How it is done: as §1, §2, §3, §4, §5
For a further assay, the system named is CB2R. The settings on record: 25°C, radioligand kinetic binding assay, ref Martella et al., 2017; cited from earlier work.

T2 sequence (P21554 91-472): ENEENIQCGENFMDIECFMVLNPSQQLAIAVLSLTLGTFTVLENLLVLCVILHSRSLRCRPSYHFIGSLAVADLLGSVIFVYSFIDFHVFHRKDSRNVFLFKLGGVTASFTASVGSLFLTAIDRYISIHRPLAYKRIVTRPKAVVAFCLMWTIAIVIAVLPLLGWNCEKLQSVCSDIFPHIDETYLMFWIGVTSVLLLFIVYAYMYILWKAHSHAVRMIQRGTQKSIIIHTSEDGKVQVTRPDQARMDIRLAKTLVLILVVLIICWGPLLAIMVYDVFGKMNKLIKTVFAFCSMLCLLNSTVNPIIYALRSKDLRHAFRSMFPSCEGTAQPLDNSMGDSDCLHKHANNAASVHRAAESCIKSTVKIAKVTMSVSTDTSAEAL
T1 sequence (P34972 whole entry, the tested form may be a part): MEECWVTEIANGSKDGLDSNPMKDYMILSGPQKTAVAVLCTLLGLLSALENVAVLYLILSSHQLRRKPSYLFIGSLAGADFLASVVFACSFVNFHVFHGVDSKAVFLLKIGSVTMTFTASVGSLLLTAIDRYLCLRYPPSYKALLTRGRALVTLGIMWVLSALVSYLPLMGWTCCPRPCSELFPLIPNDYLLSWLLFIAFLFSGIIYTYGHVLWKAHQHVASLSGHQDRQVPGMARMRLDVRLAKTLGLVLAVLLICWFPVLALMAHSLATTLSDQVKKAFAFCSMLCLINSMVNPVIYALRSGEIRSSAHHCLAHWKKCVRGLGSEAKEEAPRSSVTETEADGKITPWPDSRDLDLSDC
T4 sequence (P21554 91-472): as the sequence (P21554 91-472) above
T3 sequence (P21554 whole entry): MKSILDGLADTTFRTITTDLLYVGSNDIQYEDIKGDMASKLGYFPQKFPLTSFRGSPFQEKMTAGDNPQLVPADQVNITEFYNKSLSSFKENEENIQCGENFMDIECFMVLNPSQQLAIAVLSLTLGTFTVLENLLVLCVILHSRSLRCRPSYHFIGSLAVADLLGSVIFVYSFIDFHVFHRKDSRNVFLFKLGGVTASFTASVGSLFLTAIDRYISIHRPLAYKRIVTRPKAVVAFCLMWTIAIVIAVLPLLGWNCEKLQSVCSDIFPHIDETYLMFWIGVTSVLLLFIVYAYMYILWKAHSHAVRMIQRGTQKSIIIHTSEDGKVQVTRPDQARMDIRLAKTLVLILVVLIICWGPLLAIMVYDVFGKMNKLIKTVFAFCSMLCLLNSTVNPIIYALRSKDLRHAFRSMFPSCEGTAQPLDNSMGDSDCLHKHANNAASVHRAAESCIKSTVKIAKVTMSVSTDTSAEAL

Compound `CCCCC/C=C\C/C=C\C/C=C\C/C=C\CCCC(=O)OC(CO)CO` [2-AG] had a pK i at human CB2R (SNAP-CB2) [1] of 5.81 ± 0.03. For the same compound, on human CB2R (SNAP-CB2) [2] (25°C), the “pKd (kinetic)” value is given as 6.36 ± 0.06. In addition, the “pK d (kinetic)” value on human CB2R (SNAP-CB2) [2] (37°C) stood at 5.92 ± 0.04.

In [3], `CCCCCCC(C)(C)c1cc(O)c2c(c1)OC(C)(C)[C@@H]1CC=C(CO)C[C@@H]21` [HU-210] came in with a pK i of 7.99 ± 0.01. In addition, in [4], the “pK d (kinetic)” value came out at 8.65 ± 0.01 and the “pKd (kinetic)” value is recorded as 8.64 ± 0.02. Besides, at full length CB1R WT, the “Emax (%)” value was found to be 98.2 ± 6.8% and the pEC50 worked out at 8.97 ± 0.08. On truncated CB1R91-472, the “Emax (%)” value is 104.1 ± 4.7% and the pEC50 is 9.15 ± 0.09.

As for `CCCCCCC(C)(C)c1cc(OC)c([C@@H]2C=C(CO)[C@@H]3C[C@H]2C3(C)C)c(OC)c1` [HU-308], in [3], the Ki is 3.89 µM. Moreover, the dissociation constant (Kd) is 4.47 µM in assay [4] (pK d (kinetic)) and 4.27 µM in assay [4] (pKd (kinetic)).

With `CCCCCCC(C)(C)c1cc(OC)c(C2C=C(CNC(=O)CCCCCCNc3ccc([N+](=O)[O-])c4nonc34)C3CC2C3(C)C)c(OC)c1` (stereo not shown) [MKA-115], the “time required for equilibrium” value (in assay [5]; on human CB2R (SNAP-CB2) [6]) was > 15 min in each case.

Turning to `CCCCCc1cc(O)c2c(c1)OC(C)(C)[C@@H]1CC=C(CNC(=O)CCCCCCNc3ccc([N+](=O)[O-])c4nonc34)C[C@@H]21` [MKA-136], the “time required for equilibrium” value in assay [5] was > 15 min. Moreover, on human CB2R (SNAP-CB2) [6], the “koff of fluorescent tracer” value worked out at 0.0035 ± 0.0012 s⁻¹, the “pKd of fluorescent tracer” value was determined as 6.71 ± 0.41 and the “time required for equilibrium” value is recorded as > 15 min.

On to `CCCCCc1cc(O)c2c(c1)OC(C)(C)[C@@H]1CC=C(CNC(=O)CCCCC[n+]3cc(S(=O)(=O)[O-])ccc3/C=C/c3cc4ccc(N(CC)CC)cc4oc3=O)C[C@@H]21` [MKA-138], for which, in assay [5], the “koff of fluorescent tracer” value was found to be 0.15 ± 0.03 s⁻¹ and the “pKd of fluorescent tracer” value is 6.31 ± 0.05. In addition, on human CB2R (SNAP-CB2) [6], the “koff of fluorescent tracer” value came to 0.0153 ± 0.0015 s⁻¹ and the “pKd of fluorescent tracer” value was 6.97 ± 0.08.

On to `CCOC(=O)C(CC)(CCCSCCOCCNc1ccc([N+](=O)[O-])c2nonc12)NC(=O)c1ccc(C2CC2)c(Cc2ccc(F)cc2)n1` (stereo not shown) [NBD-690], for which, in assay [5], the “koff of fluorescent tracer” value stood at 0.128 ± 0.00733 s⁻¹ and the “pKd of fluorescent tracer” value is given as 6.13 ± 0.09. Also, at human CB2R (SNAP-CB2) [6], the “koff of fluorescent tracer” value was determined as 0.0162 ± 0.00083 s⁻¹ and the “pKd of fluorescent tracer” value was determined as 7.15 ± 0.02.

For `CCOC(=O)C(CC)(CCCSCCOCCOCCNc1ccc([N+](=O)[O-])c2nonc12)NC(=O)c1ccc(C2CC2)c(Cc2ccc(F)cc2)n1` (stereo not shown) [NBD-691], the “pKd of fluorescent tracer” value in assay [5] is 6.04 ± 0.01. Also, at human CB2R (SNAP-CB2) [6], the “koff of fluorescent tracer” value amounted to 0.0208 ± 0.001 s⁻¹ and the “pKd of fluorescent tracer” value stood at 7.20 ± 0.01.

On to `CCOC(=O)C(CC)(CCCSCCOCCOCCOCCNc1ccc([N+](=O)[O-])c2nonc12)NC(=O)c1ccc(C2CC2)c(Cc2ccc(F)cc2)n1` (stereo not shown) [NBD-694], for which the “pKd of fluorescent tracer” value in assay [5] was found to be 6.02 ± 0.01. For the same compound, on human CB2R (SNAP-CB2) [6], the “koff of fluorescent tracer” value was found to be 0.039 ± 0.00367 s⁻¹ and the “pKd of fluorescent tracer” value is 6.97 ± 0.01.

Consider `CCOC(=O)C(CC)(CCCSCCOCCOCCOCCOCCNc1ccc([N+](=O)[O-])c2nonc12)NC(=O)c1ccc(C2CC2)c(Cc2ccc(F)cc2)n1` (stereo not shown) [NBD-698], for which the “koff of fluorescent tracer” value in [5] stood at 0.166 ± 0.004 s⁻¹; on human CB2R (SNAP-CB2) [6], 0.0475 ± 0.00667 s⁻¹. In addition, the “pKd of fluorescent tracer” value in assay [5] worked out at 6.22 ± 0.01; at human CB2R (SNAP-CB2) [6], 6.93 ± 0.05.

For SR 144528, in [4], the k off came to 0.0832 ± 0.0122 s⁻¹ and the koff is 0.0387 ± 0.00333 s⁻¹. Besides, at human CB2R (SNAP-CB2) [2] (25°C), the “Residence time (Rt) (s)” value was determined as 379 ± 27 s and the koff was determined as 0.00267 ± 0.00017 s⁻¹. The “Residence time (Rt) (min)” value at human CB2R (SNAP-CB2) [2] (25°C, listed as SR 144,528) was found to be 6.3 min. Further, the “Residence time (Rt) (min)” value on human CB2R (SNAP-CB2) [2] (25°C, listed as SR-144528) came out at 6.32 ± 0.45 min. In addition, on human CB2R (SNAP-CB2) [2] (37°C), the k off was determined as 0.0115 ± 0.0005 s⁻¹; the k on result is given as “(2.47 ± 0.16) × 10^8 M^−1 min^−1”; the “k on (text, shared exponent)” value is 4.17e+06 M⁻¹ s⁻¹. Further, on human CB2R (SNAP-CB2) [2] (37°C, Rt = 1/k off), the “Residence time (Rt) (min)” value turned out to be 1.46 ± 0.07 min and the “Residence time (Rt) (s)” value is reported as 87 ± 4 s. Besides, in the assay on CB2R, the residence time is given as 8.7 min.
